The text below walks through data of ChEMBL document CHEMBL1201862, “PubChem BioAssay data set” (2004).

Activity calls are given as the source filed them. A value given as a limit tells only on which side of the number the result lay.

Assay [1] is described as follows: general cell-killing toxicity readout – plate reader, dry powder samples, cytotoxicity control for PAX8 inhibitor project, dose response (AID 743021). The assay is classed as functional, cell-based.
For assay [2], the target named is T1, Hexokinase HKDC1 (Homo sapiens, UniProt Q2TB90).
T1 sequence (Q2TB90 whole entry): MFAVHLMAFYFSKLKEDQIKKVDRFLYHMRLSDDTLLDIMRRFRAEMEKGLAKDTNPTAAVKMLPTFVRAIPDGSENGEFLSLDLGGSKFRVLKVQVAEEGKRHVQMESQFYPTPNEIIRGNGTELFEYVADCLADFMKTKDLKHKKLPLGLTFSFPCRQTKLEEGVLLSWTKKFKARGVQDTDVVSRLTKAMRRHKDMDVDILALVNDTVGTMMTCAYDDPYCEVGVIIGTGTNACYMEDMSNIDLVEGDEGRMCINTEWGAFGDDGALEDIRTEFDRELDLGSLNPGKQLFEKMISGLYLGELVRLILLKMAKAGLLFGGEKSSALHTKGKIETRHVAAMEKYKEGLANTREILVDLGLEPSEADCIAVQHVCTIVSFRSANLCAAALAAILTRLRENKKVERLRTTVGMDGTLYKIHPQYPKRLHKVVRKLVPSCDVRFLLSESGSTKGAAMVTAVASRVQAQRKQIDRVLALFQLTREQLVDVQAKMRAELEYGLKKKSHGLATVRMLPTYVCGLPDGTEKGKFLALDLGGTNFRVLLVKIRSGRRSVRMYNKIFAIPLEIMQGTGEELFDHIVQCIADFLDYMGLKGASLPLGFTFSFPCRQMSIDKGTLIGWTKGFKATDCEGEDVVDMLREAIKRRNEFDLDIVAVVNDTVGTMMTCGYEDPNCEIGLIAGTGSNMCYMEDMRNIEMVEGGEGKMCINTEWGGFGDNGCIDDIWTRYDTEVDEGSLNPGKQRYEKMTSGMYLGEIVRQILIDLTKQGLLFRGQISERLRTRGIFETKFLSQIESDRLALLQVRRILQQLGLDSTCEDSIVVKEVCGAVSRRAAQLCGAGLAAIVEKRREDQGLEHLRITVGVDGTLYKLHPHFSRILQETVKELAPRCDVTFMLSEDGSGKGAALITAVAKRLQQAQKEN
Nature of the assay: inhibition of HKDC1 glucose phosphorylation – biochemical, W721R variant, dose response (AID 504729). The assay is classed as functional.

Assay [3] in a line: loss of viability in HepG2 cells – cell-based, CellTiter-Glo, cherry-picked, cytotoxicity control for Shn3 inhibitor project, dose response (AID 624134). Format: functional.
The target in assay [4] is T2, Serine/threonine-protein phosphatase (Candida dubliniensis (strain CD36 / CBS 7987 / NCPF 3949 / NRRLY-17841) (Yeast), UniProt B9W6M3).
T2 sequence (B9W6M3 whole entry): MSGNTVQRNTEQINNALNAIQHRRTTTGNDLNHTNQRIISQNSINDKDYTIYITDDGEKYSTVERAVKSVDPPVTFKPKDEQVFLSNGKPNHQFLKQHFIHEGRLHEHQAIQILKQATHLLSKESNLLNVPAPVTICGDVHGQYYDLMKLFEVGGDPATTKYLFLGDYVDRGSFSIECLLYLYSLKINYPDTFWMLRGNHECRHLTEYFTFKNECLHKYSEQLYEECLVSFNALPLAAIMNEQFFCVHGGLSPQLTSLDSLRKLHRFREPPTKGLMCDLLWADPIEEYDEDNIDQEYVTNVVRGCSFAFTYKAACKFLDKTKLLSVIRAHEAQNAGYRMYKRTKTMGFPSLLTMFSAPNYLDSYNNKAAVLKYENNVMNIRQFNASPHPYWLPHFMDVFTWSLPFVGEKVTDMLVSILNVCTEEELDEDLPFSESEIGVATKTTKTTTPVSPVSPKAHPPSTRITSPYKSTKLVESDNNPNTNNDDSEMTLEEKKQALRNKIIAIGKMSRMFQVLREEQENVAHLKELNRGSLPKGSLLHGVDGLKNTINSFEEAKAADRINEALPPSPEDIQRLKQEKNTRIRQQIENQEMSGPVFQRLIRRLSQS
Nature of the assay: blockers of CaCl2-induced CDRE-lacZ signaling – S. cerevisiae, luminescence, secondary, dose response (AID 2388).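 Note: yeast reporter cells carrying a calcineurin-responsive lacZ construct stimulated with calcium chloride; luminescent beta-galactosidase reporter signal in whole cells rather than isolated phosphatase activity; potency for inhibition where a drop in reporter signal means calcineurin blockade.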 Format: functional, cell-based.

Assay [5] can be described thus: fluconazole-exposed Candida albicans growth modulators – fluorescence, retest, confirmation (AID 2467). Format: functional, cell-based.
The nature of assay [6]: Counterscreen for AddAB inhibitors: absorbance-based bacterial cell-based high throughput dose response assay for inhibitors of bacterial viability. [Related pubchem assays (depositor defined):AID435030, AID449728, AID449731, AID488942, AID488955, AID488956]. Format: functional.
A short description of assay [7]: NIH-3T3 fibroblast cytotoxicity, dose response, cytotoxicity control, cell-based, fluorescence, Alamar Blue, secondary assay (AID 2327).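 Note: NIH-3T3 mouse fibroblasts cultured with fluconazole at 8 µg/mL.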 Format: functional.
A short description of assay [8]: NIH3T3 cell viability loss – ATP luminescence, mouse fibroblasts, counter-screen, dose response (AID 2010).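 Note: cells exposed to compound for about 90 hours before reading.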 Format: functional, cell-based.
A short description of assay [9]: Luminescence-based dose response cell-based high throughput screening assay for cytotoxic compounds using the IEC-6 intestinal epithelial cell line. [Related pubchem assays: 1858 (Summary AID.), 1825 (Counterscreen.), 1907 (Confirmation screen.)]. The assay is classed as functional.
The target of assay [10] is Rho-associated protein kinase 1 (Homo sapiens, UniProt Q13464). Format: functional.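 Note: measured within a broad kinome-wide panel profiling many kinases.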
Rho-associated protein kinase 1, sequence (Q13464 whole entry): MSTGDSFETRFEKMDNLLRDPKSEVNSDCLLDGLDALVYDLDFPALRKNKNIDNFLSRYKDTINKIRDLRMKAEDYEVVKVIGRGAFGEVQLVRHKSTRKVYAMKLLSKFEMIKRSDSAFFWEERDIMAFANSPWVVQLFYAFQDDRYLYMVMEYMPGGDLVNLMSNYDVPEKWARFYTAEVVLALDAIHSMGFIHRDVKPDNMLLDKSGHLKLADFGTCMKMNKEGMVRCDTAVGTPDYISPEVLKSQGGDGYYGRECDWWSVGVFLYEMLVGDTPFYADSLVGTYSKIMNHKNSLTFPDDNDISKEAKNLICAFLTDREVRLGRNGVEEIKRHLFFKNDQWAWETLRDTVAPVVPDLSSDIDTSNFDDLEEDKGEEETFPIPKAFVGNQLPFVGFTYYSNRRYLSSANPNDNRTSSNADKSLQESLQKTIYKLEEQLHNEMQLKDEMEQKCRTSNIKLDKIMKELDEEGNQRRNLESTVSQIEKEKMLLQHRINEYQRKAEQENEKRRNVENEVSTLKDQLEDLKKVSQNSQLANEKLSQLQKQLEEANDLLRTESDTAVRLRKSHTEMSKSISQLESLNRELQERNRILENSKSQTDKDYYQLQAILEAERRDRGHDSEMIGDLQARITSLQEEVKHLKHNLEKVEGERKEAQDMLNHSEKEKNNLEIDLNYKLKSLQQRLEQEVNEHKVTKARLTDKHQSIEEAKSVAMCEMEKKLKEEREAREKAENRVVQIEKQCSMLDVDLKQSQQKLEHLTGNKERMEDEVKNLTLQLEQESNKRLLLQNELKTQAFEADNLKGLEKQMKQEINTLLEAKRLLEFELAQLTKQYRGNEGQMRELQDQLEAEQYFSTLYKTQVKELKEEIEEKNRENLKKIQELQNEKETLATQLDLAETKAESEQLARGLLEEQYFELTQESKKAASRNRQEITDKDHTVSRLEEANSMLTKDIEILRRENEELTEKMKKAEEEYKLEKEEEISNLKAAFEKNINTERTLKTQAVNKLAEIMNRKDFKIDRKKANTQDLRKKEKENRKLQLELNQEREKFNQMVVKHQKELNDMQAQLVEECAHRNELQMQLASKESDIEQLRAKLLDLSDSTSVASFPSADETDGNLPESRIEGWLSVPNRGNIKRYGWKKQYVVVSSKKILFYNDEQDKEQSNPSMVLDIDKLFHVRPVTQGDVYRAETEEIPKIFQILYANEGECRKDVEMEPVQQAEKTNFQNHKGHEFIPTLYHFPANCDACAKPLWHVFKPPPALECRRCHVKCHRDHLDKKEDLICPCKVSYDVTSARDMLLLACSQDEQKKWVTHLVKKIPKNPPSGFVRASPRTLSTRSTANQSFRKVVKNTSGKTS
For assay [11], the target named is T3, cAMP-dependent protein kinase catalytic subunit PRKX (Homo sapiens, UniProt P51817).
T3 sequence (P51817 whole entry): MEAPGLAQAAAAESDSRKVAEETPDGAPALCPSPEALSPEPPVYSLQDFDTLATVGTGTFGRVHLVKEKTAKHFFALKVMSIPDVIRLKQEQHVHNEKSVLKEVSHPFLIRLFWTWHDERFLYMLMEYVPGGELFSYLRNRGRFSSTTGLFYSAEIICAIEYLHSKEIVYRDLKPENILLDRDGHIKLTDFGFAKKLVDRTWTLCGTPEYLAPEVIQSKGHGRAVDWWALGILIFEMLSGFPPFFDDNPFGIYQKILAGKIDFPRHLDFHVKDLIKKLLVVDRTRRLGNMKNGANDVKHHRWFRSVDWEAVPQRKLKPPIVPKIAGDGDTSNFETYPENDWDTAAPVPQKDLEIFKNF
The assay is classed as functional.

For assay [12], the target named is Glycogen synthase kinase-3 beta (Homo sapiens, UniProt P49841). The assay is classed as functional.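 Note: value comes from a broad kinome profiling panel, with GSK3B as the panel member.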
Glycogen synthase kinase-3 beta, sequence (P49841 whole entry): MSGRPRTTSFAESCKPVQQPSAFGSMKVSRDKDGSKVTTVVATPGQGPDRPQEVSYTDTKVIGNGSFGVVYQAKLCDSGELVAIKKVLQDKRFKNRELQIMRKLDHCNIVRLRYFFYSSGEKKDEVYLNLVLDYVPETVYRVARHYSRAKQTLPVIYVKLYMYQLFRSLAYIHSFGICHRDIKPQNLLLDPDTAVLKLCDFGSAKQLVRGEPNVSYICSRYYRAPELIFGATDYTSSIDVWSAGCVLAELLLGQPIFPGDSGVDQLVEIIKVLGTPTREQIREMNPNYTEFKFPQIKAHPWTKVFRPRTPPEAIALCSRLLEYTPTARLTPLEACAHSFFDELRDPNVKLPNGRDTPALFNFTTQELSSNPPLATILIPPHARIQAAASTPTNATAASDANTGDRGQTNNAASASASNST
The target of assay [13] is Tyrosine-protein kinase receptor TYRO3 (Homo sapiens, UniProt Q06418). Format: functional.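 Note: TYRO3 value obtained as one member of a kinome-wide profiling panel.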
Tyrosine-protein kinase receptor TYRO3, sequence (Q06418 whole entry): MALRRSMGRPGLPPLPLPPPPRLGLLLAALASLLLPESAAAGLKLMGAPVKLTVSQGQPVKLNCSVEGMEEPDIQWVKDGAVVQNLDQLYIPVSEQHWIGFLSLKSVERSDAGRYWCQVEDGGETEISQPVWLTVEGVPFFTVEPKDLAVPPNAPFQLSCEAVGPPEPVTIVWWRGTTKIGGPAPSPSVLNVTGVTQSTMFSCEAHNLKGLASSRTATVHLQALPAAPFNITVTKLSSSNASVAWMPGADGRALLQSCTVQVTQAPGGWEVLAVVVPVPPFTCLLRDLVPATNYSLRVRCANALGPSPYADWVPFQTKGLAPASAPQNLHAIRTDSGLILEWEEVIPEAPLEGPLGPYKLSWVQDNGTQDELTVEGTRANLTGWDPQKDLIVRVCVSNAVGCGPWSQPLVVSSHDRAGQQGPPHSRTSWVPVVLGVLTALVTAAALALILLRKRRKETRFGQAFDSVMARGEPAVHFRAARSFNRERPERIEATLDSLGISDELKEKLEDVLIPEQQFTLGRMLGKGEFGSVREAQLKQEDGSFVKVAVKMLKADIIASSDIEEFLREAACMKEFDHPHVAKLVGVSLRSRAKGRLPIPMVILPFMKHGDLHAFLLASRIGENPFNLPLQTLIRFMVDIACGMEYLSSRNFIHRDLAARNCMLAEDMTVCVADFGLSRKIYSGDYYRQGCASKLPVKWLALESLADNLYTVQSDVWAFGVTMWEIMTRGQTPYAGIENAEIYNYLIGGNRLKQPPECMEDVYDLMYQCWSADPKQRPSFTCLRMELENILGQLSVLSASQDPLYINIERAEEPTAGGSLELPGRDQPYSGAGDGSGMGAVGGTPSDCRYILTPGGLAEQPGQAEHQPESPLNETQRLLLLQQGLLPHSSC
The target in assay [14] is Dual specificity tyrosine-phosphorylation-regulated kinase 1B (Homo sapiens, UniProt Q9Y463). Briefly: Navigating the Kinome. Panel member name: DYRK1B. Format: functional.
Dual specificity tyrosine-phosphorylation-regulated kinase 1B, sequence (Q9Y463 whole entry): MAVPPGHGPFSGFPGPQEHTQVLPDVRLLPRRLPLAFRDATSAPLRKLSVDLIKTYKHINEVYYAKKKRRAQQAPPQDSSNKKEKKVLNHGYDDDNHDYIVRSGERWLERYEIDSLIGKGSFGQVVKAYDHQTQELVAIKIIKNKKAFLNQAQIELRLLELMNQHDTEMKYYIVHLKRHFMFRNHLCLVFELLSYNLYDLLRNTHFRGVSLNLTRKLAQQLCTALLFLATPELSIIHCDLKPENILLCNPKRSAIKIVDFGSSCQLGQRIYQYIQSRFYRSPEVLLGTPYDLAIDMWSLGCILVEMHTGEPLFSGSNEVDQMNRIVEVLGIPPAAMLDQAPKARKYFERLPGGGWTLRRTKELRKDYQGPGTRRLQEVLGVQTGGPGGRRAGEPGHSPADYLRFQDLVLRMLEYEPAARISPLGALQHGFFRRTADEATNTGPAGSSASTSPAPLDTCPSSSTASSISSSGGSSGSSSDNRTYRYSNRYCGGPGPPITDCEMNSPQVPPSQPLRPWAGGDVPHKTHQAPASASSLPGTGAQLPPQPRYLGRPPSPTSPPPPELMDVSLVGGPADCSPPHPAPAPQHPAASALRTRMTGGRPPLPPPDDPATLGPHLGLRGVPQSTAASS
Assay [15] addresses Tyrosine-protein kinase Fyn (Homo sapiens, UniProt P06241). The assay is classed as functional.
The target of assay [16] is Tyrosine-protein kinase Lck (Homo sapiens, UniProt P06239). The assay is classed as functional.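 Note: lck was assayed as one member of a kinase panel.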
Assay [17] addresses Serine/threonine-protein kinase pim-1 (Homo sapiens, UniProt P11309). Format: functional.
In assay [18] the target is Macrophage colony-stimulating factor 1 receptor (Homo sapiens, UniProt P07333). Format: functional.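 Note: value comes from the Navigating the Kinome screening panel, CSF1R member.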
Macrophage colony-stimulating factor 1 receptor, sequence (P07333 whole entry): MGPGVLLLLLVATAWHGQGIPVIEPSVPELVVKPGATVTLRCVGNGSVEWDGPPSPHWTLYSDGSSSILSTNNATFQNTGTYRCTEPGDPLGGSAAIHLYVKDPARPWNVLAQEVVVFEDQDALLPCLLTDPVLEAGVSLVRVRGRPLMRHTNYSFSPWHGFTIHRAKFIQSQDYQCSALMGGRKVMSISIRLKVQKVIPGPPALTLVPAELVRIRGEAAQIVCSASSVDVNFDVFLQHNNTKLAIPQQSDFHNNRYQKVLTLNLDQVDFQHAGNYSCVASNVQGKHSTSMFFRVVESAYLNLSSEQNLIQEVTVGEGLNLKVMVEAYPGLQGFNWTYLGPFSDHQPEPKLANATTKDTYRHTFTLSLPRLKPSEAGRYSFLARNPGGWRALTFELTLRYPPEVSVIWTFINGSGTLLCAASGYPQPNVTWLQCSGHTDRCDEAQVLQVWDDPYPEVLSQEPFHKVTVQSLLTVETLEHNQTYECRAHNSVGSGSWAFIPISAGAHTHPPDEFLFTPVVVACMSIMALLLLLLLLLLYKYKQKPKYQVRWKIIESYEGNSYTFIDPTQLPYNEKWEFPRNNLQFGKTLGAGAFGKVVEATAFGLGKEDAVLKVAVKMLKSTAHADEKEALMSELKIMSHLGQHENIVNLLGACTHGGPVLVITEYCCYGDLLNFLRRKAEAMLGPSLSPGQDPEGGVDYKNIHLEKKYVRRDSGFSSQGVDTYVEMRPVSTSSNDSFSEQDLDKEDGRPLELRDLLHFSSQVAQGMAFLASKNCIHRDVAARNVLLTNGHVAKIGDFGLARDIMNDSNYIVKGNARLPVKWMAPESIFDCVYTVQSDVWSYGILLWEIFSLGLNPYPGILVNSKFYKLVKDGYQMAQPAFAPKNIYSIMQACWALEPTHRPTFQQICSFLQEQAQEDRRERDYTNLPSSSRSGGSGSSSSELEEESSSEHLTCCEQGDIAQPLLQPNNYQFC

Tyrosine-protein kinase Fyn, sequence (P06241 whole entry): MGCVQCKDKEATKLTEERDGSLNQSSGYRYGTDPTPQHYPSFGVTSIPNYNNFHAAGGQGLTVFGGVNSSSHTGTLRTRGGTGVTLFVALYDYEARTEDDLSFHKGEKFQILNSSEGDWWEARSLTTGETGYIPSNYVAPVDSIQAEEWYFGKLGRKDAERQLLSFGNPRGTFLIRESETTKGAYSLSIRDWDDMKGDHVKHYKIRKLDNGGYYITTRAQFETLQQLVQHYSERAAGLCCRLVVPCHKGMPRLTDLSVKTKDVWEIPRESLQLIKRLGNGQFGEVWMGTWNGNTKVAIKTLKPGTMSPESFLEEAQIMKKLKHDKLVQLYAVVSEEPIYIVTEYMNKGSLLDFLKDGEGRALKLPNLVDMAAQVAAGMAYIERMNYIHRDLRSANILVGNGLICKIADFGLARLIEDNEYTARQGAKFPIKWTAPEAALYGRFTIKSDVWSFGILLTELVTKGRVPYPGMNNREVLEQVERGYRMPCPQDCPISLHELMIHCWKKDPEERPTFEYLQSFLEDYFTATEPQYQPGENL

Take `O=C(NC1=C(NC2CCS(=O)(=O)C2)C(=O)c2ccccc2C1=O)c1ccccc1` (stereo not drawn): the AC50 in assay [1] was 36500 nM (active). Besides, the half-maximal inhibitory concentration (IC50) in [2] was 5140 nM (active).

In the case of `CCCC(=O)NC(c1ccc(N(C)C)cc1)c1ccc2cccnc2c1O` (stereo not drawn), the AC50 in assay [3] is 2090 nM (active). Also, the EC50 was > 180000 nM (inactive) in [4], 626 nM (active) in [5], 22900 nM (inconclusive) in assay [7] and 729 nM (active) in assay [8]. Further, the IC50 was > 119000 nM (inactive) in [6] and 1550 nM (active) in assay [9].

As to `O=C1NC(=O)C(c2c[nH]c3ccccc23)=C1c1nc(N2CCNCC2)nc2ccccc12`, the Ki in assay [10] was > 2000 nM (inactive); in assay [11], > 2000 nM (inactive); in assay [12], > 3980 nM (inactive); in assay [13] it was > 2000 nM (inactive); in assay [14], > 2000 nM (inactive); in [15] it was > 6310 nM (inactive). Moreover, the Ki was > 6310 nM (inactive) in assay [16], 100 nM (active) in [17] and > 2510 nM (inactive) in [18].
